In patent publication US10611740B2, “Aryl dihydro-2H-benzo[b][1,4]oxazine sulfonamide and related compounds for use as agonists of RORγ and the treatment of disease” (Lycera Corporation, priority 2015, dated 2020):

How the values were obtained:
Gal4-RORγ-LBD = molecular target: T1, Gal4-RORγ-LBD (Homo sapiens, UniProt P51449); assay: Gal4-RORγ Luciferase Reporter Assay in HEK-293T Cells; format: cell-based; conditions: HEK-293 cells
T1 construct: expressed in transfected cells; host or cells: HEK-293 cells (pcDNA3.1neo plasmid)
T1 sequence (P51449 269-508 limits assumed): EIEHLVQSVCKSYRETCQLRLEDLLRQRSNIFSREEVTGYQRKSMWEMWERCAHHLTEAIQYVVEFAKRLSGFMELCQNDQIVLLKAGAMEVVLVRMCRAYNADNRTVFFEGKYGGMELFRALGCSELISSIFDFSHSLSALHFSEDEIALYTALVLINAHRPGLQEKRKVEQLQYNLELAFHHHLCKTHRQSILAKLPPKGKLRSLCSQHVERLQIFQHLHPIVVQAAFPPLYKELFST
Outline: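 In transfected HEK-293 cells (Gal4-RORγ-LBD, Gal4-luciferase), test agents with 2 μM ursolic acid were incubated overnight at 37 °C before luminescent detection. Values are relative to the ursolic-acid-free, compound-free signal (100).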

RORγ-LBD = molecular target: T2, RORγ-LBD (Homo sapiens, UniProt P51449); assay: RORγ-Ligand Binding Domain (LBD) TR-FRET Assay; format: biochemical;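 on TR-FRET Assay Max Response: 665/615 nm ratio relative to signal without ursolic acid or compound set at 100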
T2 construct: made in house; host or cells: SF9 cells (baculovirus)
T2 sequence (P51449 269-508 limits assumed): T1 sequence (P51449 269-508 limits assumed)
Outline: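 Lysate from SF9 cells expressing His-RORγ-LBD is diluted to about 3 nM final in 50 mM Tris pH 7.0 assay buffer. A biotin-tagged SRC1 LXXLL peptide goes in at 200 nM final, plus ursolic acid at 2 μM final. Test compounds carry 1% DMSO final; signal read by TR-FRET.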

[1] = luciferase reporter, with 2 μM ursolic acid

Row | SMILES | EC50 (Gal4-RORγ-LBD; [1]) | EC50 (RORγ-LBD) | EC50 (Gal4-RORγ-LBD; 2 μM ursolic acid) | Gal4-RORγ Assay Max Response (Gal4-RORγ-LBD; [1]) | TR-FRET Assay Max Response (RORγ-LBD) | Gal4-RORγ Assay Max Response (Gal4-RORγ-LBD; 2 μM ursolic acid)
1 | CCOc1nn(CC)cc1S(=O)(=O)N1C[C@H](CCC(=O)O)Oc2ccc(-c3cccc(Cl)c3)cc21 [Compound 6A, (S)-3-(6-(3-chlorophenyl)-4-((3-ethoxy-1-ethyl-1H-pyrazol-4-yl)sulfonyl)-3,4-dihydro-2H-benzo[b][1,4]oxazin-2-yl)propanoic acid] | 500 to 5000 nM | < 500 nM |  | * (The symbol “*” indicates a value in the range of 25 to 90) | *** (The symbol “***” indicates a value in the range of greater than 150 to 200) | 
2 | Cn1cnc(-c2ccc3c(c2)N(S(=O)(=O)c2cccc(C(F)(F)F)c2)C[C@H](CCC(=O)O)O3)c1 [Compound 4Q, (S)-3-(6-(1-methyl-1H-imidazol-4-yl)-4-((3-(trifluoromethyl)-phenyl)sulfonyl)-3,4-dihydro-2H-benzo[b][1,4]oxazin-2-yl)propanoic acid] | > 10000 nM | 500 to 5000 nM |  |  | ** (The symbol “**” indicates a value in the range of greater than 90 to 150) | 
3 | CCc1cccc(-c2ccc3c(c2)N(S(=O)(=O)c2cccc(C(F)(F)F)c2)C[C@H](CCC(=O)O)O3)c1 [Compound 4AH, (S)-3-(6-(3-ethylphenyl)-4-((3-(trifluoromethyl)phenyl)-sulfonyl)-3,4-dihydro-2H-benzo[b][1,4]oxazin-2-yl)propanoic acid] | < 500 nM | < 500 nM |  | ** (The symbol “**” indicates a value in the range of greater than 90 to 150) | **** (The symbol “****” indicates a value greater than 200) | 
4 | O=C(O)CC[C@H]1CN(S(=O)(=O)c2cccc(C(F)(F)F)c2)c2cc(-c3cccnc3Cl)ccc2O1 [Compound 2BE, (S)-3-(6-(2-chloropyridin-3-yl)-4-((3-(trifluoromethyl)phenyl)-sulfonyl)-3,4-dihydro-2H-benzo[b][1,4]oxazin-2-yl)propanoic acid] | 500 to 5000 nM | < 500 nM |  | ** (The symbol “**” indicates a value in the range of greater than 90 to 150) | **** (The symbol “****” indicates a value greater than 200) | 
5 | Cc1ccc(Cl)c(-c2ccc3c(c2)N(S(=O)(=O)c2cccc(C(F)(F)F)c2)C[C@H](CCC(=O)O)O3)c1 [Compound 2BK, (S)-3-(6-(2-chloro-5-methyl-phenyl)-4-((3-(trifluoromethyl)-phenyl)sulfonyl)-3,4-dihydro-2H-benzo[b][1,4]oxazin-2-yl)propanoic acid] | < 500 nM | < 500 nM |  | ** (The symbol “**” indicates a value in the range of greater than 90 to 150) | *** (The symbol “***” indicates a value in the range of greater than 150 to 200) | 
6 | Cn1nccc1-c1ccc2c(c1)N(S(=O)(=O)c1cccc(C(F)(F)F)c1)C[C@H](CCC(=O)O)O2 [Compound 2AR, (S)-3-(6-(1-methyl-1H-pyrazol-5-yl)-4-((3-(trifluoromethyl)-phenyl)sulfonyl)-3,4-dihydro-2H-benzo[b][1,4]oxazin-2-yl)propanoic acid] | > 10000 nM | 500 to 5000 nM |  |  | * (The symbol “*” indicates a value in the range of 25 to 90) | 
7 | COCCC(=O)NC[C@H]1CN(S(=O)(=O)c2cccc(C(F)(F)F)c2)c2cc(-c3cccc(F)c3Cl)ccc2O1 [Compound 30CH, (S)-N-((6-(2-chloro-3-fluoro-phenyl)-4-((3-(trifluoromethyl)-phenyl)sulfonyl)-3,4-dihydro-2H-benzo[b][1,4]oxazin-2-yl)methyl)-3-methoxy-propanamide] |  | < 500 nM | 500 to 5000 nM |  | *** (The symbol “***” indicates a value in the range of greater than 150 to 200) | * (The symbol “*” indicates a value in the range of 25 to 90)
8 | O=C(O)CC[C@H]1CN(S(=O)(=O)c2cccc(C(F)(F)F)c2)c2cc(-c3cc(Cl)cc(F)c3F)ccc2O1 [Compound 4AQ, (S)-3-(6-(5-chloro-2,3-difluorophenyl)-4-((3-(trifluoromethyl)phenyl)sul-fonyl)-3,4-dihydro-2H-benzo[b][1,4]oxazin-2-yl)propanoic acid] | < 500 nM | < 500 nM |  | ** (The symbol “**” indicates a value in the range of greater than 90 to 150) | **** (The symbol “****” indicates a value greater than 200) | 

More lines, main results first:

Row | EC50 (Gal4-RORγ-LBD; [1]) | EC50 (RORγ-LBD) | EC50 (Gal4-RORγ-LBD; 2 μM ursolic acid) | SMILES | Gal4-RORγ Assay Max Response (Gal4-RORγ-LBD; [1]) | TR-FRET Assay Max Response (RORγ-LBD) | Gal4-RORγ Assay Max Response (Gal4-RORγ-LBD; 2 μM ursolic acid)
9 | < 500 nM | < 500 nM |  | O=c1[nH]c(OCCC[C@H]2CN(S(=O)(=O)c3cccc(C(F)(F)F)c3)c3cc(-c4cccc(C(F)(F)F)n4)ccc3O2)no1 [Compound 36C, (S)-3-(3-(4-((3-(trifluoro-methyl)phenyl)sulfonyl)-6-(6-(trifluoromethyl)-pyridin-2-yl)-3,4-dihydro-2H-benzo[b][1,4]oxazin-2-yl)propoxy)-1,2,4-oxadiazol-5(4H)-one] | ** (The symbol “**” indicates a value in the range of greater than 90 to 150) | **** (The symbol “****” indicates a value greater than 200) | 
10 | < 500 nM | < 500 nM |  | CC(C)(C[C@H]1CN(S(=O)(=O)c2cccc(C(F)(F)F)c2)c2cc(-c3cc(F)ccc3F)ccc2O1)C(=O)O [Compound 31, (S)-3-(6-(2,5-difluorophenyl)-4-((3-(trifluoromethyl)phenyl)sulfonyl)-3,4-dihydro-2H-benzo[b][1,4]oxazin-2-yl)-2,2-dimethylpropanoic Acid] | ** (The symbol “**” indicates a value in the range of greater than 90 to 150) | **** (The symbol “****” indicates a value greater than 200) | 
11 |  | < 500 nM | < 500 nM | COc1cc(F)cc(-c2ccc3c(c2)N(S(=O)(=O)c2cccc(C(F)(F)F)c2)C[C@H](CC2(C(=O)O)COC2)O3)c1F [Compound 51C, (S)-3-((6-(2,5-difluoro-3-methoxyphenyl)-4-((3-(trifluoromethyl)phenyl)sulfonyl)-3,4-dihydro-2H-benzo[b][1,4]oxazin-2-yl)methyl)oxetane-3-carboxylic acid] |  | ** (The symbol “**” indicates a value in the range of greater than 90 to 150) | ** (The symbol “**” indicates a value in the range of greater than 90 to 150)
12 | < 500 nM | < 500 nM |  | CC(C)(C[C@H]1CN(S(=O)(=O)c2cccc(C(F)(F)F)c2)c2cc(-c3cccc(F)c3F)ccc2O1)C(=O)O [Compound 32K, (S)-3-(6-(2,3-difluorophenyl)-4-((3-(trifluoromethyl)-phenyl)sulfonyl)-3,4-dihydro-2H-benzo[b][1,4]oxazin-2-yl)-2,2-dimethylpropanoic acid] | ** (The symbol “**” indicates a value in the range of greater than 90 to 150) | **** (The symbol “****” indicates a value greater than 200) | 
13 |  | < 500 nM | 500 to 5000 nM | O=C(NC[C@H]1CN(S(=O)(=O)c2cccc(C(F)(F)F)c2)c2cc(-c3cc(F)cc(OC(F)F)c3)ccc2O1)C1(F)CC1 [Compound 30DJ, (S)-N-((6-(3-(difluoromethoxy)-5-fluorophenyl)-4-((3-(trifluoro-methyl)phenyl)sulfonyl)-3,4-dihydro-2H-benzo[b][1,4]-oxazin-2-yl)methyl)-1-fluorocyclopropane-1-carboxamide] |  | *** (The symbol “***” indicates a value in the range of greater than 150 to 200) | * (The symbol “*” indicates a value in the range of 25 to 90)
14 | < 500 nM | < 500 nM |  | CC(C)(O)C(=O)NC[C@H]1CN(S(=O)(=O)c2cccc(C(F)(F)F)c2)c2cc(-c3cccc(C(F)(F)F)n3)ccc2O1 [Compound 30I, (S)-2-hydroxy-2-methyl-N-((4-((3-(trifluoromethyl)phenyl)-sulfonyl)-6-(6-(trifluoromethyl)-pyridin-2-yl)-3,4-dihydro-2H-benzo[b][1,4]oxazin-2-yl)methyl)propanamide] | * (The symbol “*” indicates a value in the range of 25 to 90) | **** (The symbol “****” indicates a value greater than 200) | 
15 | < 500 nM | < 500 nM |  | C[C@@H](C[C@H]1CN(S(=O)(=O)c2cccc(C(F)(F)F)c2)c2cc(-c3cc(F)cc(F)c3Cl)ccc2O1)C(=O)O [Compound 46C, (S)-3-((S)-6-(2-chloro-3,5-difluorophenyl)-4-((3-(trifluoro-methyl)phenyl)sulfonyl)-3,4-dihydro-2H-benzo[b][1,4]oxazin-2-yl)-2-methylpropanoic acid] | ** (The symbol “**” indicates a value in the range of greater than 90 to 150) | *** (The symbol “***” indicates a value in the range of greater than 150 to 200) | 
